Experimental findings from patent publication US4225586A, “Antibiotic SB-72310” (Takeda Chemical Industries, Ltd., priority 1978, dated 1980) are described below.

Counter-ions that a name gives are not always drawn.

Data set [1] deals with mice. Description: Acute toxicity, intravenous. The class given is in vivo. The protocol: The acute toxicity of the sodium salt of Antibiotic SB-72310 is low, with no deaths being encountered when 500 mg/kg of the salt was administered to mice by the intravenous route.
Data set [2] can be described thus: Stability in aqueous solution. The class given is physicochemical. As for the experimental part: 12. Stability: Stable in aqueous solution in the range of pH 3 to 7 at 60° C. for 10 minute heating; unstable over pH 8.5.
10. Stability: Stable in aqueous solution in the range of pH 3 to 7 at 60° C. for 10 minute heating; unstable over pH 8.5.

A short description of data set [3]: Solubility in solvents. The class given is physicochemical.
Data set [4] in a line: Basicity, neutrality or acidity. The class given is physicochemical.
For data set [5], the system named is gram-positive bacteria. Description: Antibacterial activity against gram-positive bacteria. The class given is cell-based. As to conditions: paper disk method, Table 2. As for the experimental part:
(§1) The biological characteristics of SB-72310 are as follows.
(§2) Antimicrobial spectra of SB-72310(Inhibition diameter (mm)
(§3) by paper disk method) (25 μl of test solution of 10 mg/ml
(§4) is absorbed in paper disks of 8 mm diameter)
(§5) Medium = Trypticasesoy-broth-agar

Data set [6] concerns gram-negative bacteria. The experiment in a line: Antibacterial activity against gram-negative bacteria. The class given is cell-based. The settings on record: paper disk method, Table 2. As for the experimental part: as §1, §2, §3, §4, §5
Data set [7] deals with Klebsiella pneumoniae IFO 3318. The experiment in a line: Antimicrobial spectrum, paper disk method. The class given is cell-based. As to conditions: IFO3318, 25 μl of 10 mg/ml in 8 mm paper disks, Trypticasesoy-broth-agar, read-out: Inhibition diameter. The protocol:
as §1, §2, §3, §4, §5

Data set [8] concerns Staphylococcus aureus FDA 209P. Description: Antimicrobial spectrum, paper disk method. The class given is cell-based. The settings on record: FDA209P, 25 μl of 10 mg/ml in 8 mm paper disks, Trypticasesoy-broth-agar, read-out: Inhibition diameter. As for the experimental part: as §1, §2, §3, §4, §5
Data set [9] relates to Sarcina lutea IFO 3232. The experiment in a line: Antimicrobial spectrum, paper disk method. The class given is cell-based. As to conditions: Micrococcus luteus, IFO3232, 25 μl of 10 mg/ml in 8 mm paper disks, Trypticasesoy-broth-agar, read-out: Inhibition diameter. As for the experimental part:
as §1, §2, §3, §4, §5

In data set [10] the test system is Bacillus subtilis IFO 3513. Description: Antimicrobial spectrum, paper disk method. The class given is cell-based. As to conditions: IFO3513, 25 μl of 10 mg/ml in 8 mm paper disks, Trypticasesoy-broth-agar, read-out: Inhibition diameter. As for the experimental part: as §1, §2, §3, §4, §5
Data set [11] relates to Escherichia coli NIHJ JC-2. Description: Antimicrobial spectrum, paper disk method. The class given is cell-based. As to conditions: NIHJJC2, 25 μl of 10 mg/ml in 8 mm paper disks, Trypticasesoy-broth-agar, read-out: Inhibition diameter. As for the experimental part: as §1, §2, §3, §4, §5
Data set [12] deals with Proteus mirabilis IFO 3849. Description: Antimicrobial spectrum, paper disk method. As to conditions: IFO3849, 25 μl of 10 mg/ml in 8 mm paper disks, Trypticasesoy-broth-agar, read-out: Inhibition diameter. The class given is cell-based. As for the experimental part: as §1, §2, §3, §4, §5
The test system of data set [13] is Alcaligenes faecalis IFO 13111. The experiment in a line: Antimicrobial spectrum, paper disk method. The class given is cell-based. The settings on record: IFO13111, 25 μl of 10 mg/ml in 8 mm paper disks, Trypticasesoy-broth-agar, read-out: Inhibition diameter. The protocol:
as §1, §2, §3, §4, §5

The subject of data set [14] is Proteus vulgaris IFO 3045. Description: Antimicrobial spectrum, paper disk method. The class given is cell-based. As to conditions: IFO3045, 25 μl of 10 mg/ml in 8 mm paper disks, Trypticasesoy-broth-agar, read-out: Inhibition diameter. As for the experimental part: as §1, §2, §3, §4, §5
Data set [15] deals with Pseudomonas fluorescens IFO 3081. The experiment in a line: Antimicrobial spectrum, paper disk method. The class given is cell-based. The settings on record: IFO3081, 25 μl of 10 mg/ml in 8 mm paper disks, Trypticasesoy-broth-agar, read-out: Inhibition diameter. The protocol:
as §1, §2, §3, §4, §5

Data set [16] concerns Serratia marcescens IFO 12648. Description: Antimicrobial spectrum, paper disk method. The class given is cell-based. The settings on record: IFO12648, 25 μl of 10 mg/ml in 8 mm paper disks, Trypticasesoy-broth-agar, read-out: Inhibition diameter. The protocol: as §1, §2, §3, §4, §5
For data set [17], the system named is Bacillus cereus IFO 3466. Description: Antimicrobial spectrum, paper disk method. The class given is cell-based. The settings on record: IFO3466, 25 μl of 10 mg/ml in 8 mm paper disks, Trypticasesoy-broth-agar, read-out: Inhibition diameter. As for the experimental part:
as §1, §2, §3, §4, §5

Data set [18] deals with Comamonas terrigena IFD 12685. The experiment in a line: Antimicrobial spectrum, paper disk method. The class given is cell-based. The settings on record: IFD12685, 25 μl of 10 mg/ml in 8 mm paper disks, Trypticasesoy-broth-agar, read-out: Inhibition diameter. As for the experimental part: as §1, §2, §3, §4, §5
The test system of data set [19] is Salmonella typhimurium IFO 12529. The experiment in a line: Antimicrobial spectrum, paper disk method. The class given is cell-based. The settings on record: Salmonella enterica, 25 μl of 10 mg/ml in 8 mm paper disks, Trypticasesoy-broth-agar, read-out: Inhibition diameter. The protocol:
as §1, §2, §3, §4, §5

Setting [20] is: aqueous solution, pH 3 to 7, 60° C., 10 minute heating.

In the case of `COC1(NC(=O)C(C)NC(=O)CCC(N)C(=O)O)CN(S(=O)(=O)O)C1=O` (stereo not shown) [SB-72310 sodium salt], in data set [1], the Acute toxicity entry was “low”. The Deaths result in data set [1] (500 mg/kg) is given as “no deaths”. Also, the Stability result was “Stable” in data set [2] (setting [20]) and “unstable” in data set [2] (over pH 8.5). Moreover, the Solubility in solvents entry in [3] (acetone) was “Insoluble”; in [3] (benzene), “Insoluble”; in data set [3] (chloroform) it was “Insoluble”; in [3] (diethyl ether) it was “Insoluble”; in data set [3] (dimethylsulfoxide), “soluble”; in data set [3] (ethanol) it was “sparingly soluble”. Moreover, the Solubility in solvents entry in data set [3] (ethyl acetate) is listed as “Insoluble”; in data set [3] (hexane) it was “Insoluble”; in data set [3] (methanol) it was “sparingly soluble”; in data set [3] (petroleum ether), “Insoluble”; in [3] (pyridine) it was “sparingly soluble”; in data set [3] (water), “readily soluble”.

`COC1(NC(=O)C(C)NC(=O)CCC(N)C(=O)O)CN(S(=O)(=O)O)C1=O` (stereo not shown) [SB-72310]: the “Basicity, neutrality or acidity” value in [4] was “Acid”. Besides, the “Activity against gram-positive bacteria” value in [5] is on record as “active”. Further, the “Activity against gram-negative bacteria” value in data set [6] was “active”. Also, the zone of inhibition at 10000 µg/mL came to 12.5 mm in [7]; 18.5 mm in [8]; 23 mm in data set [9]; 22 mm in data set [10]; 14.5 mm in data set [11]; 19 mm in [12]. Moreover, the zone of inhibition at 10000 µg/mL in [13] was determined as 23 mm; in data set [14] it was 18 mm; in data set [15], 12.5 mm; in data set [16] it was 17 mm; in [17], 14.5 mm; in data set [18], 25 mm. Moreover, the zone of inhibition at 10000 µg/mL in [19] came out at 18.5 mm. Moreover, the results for the Stability result in data set [2] (setting [20]) and in data set [2] (over pH 8.5) were “Stable” and “unstable”, respectively. Further, the Solubility in solvents entry in data set [3] (acetone) was “sparingly soluble”; in data set [3] (benzene), “Insoluble”; in [3] (chloroform), “Insoluble”; in [3] (diethyl ether), “Insoluble”; in data set [3] (dimethylsulfoxide), “soluble”; in data set [3] (ethanol), “sparingly soluble”. Further, the Solubility in solvents entry in data set [3] (ethyl acetate) is reported as “Insoluble”; in [3] (hexane) it was “Insoluble”; in [3] (methanol), “soluble”; in [3] (petroleum ether) it was “Insoluble”; in [3] (pyridine), “sparingly soluble”; in [3] (water), “readily soluble”.
